Data as given in US20250381277A1, “COMPOSITIONS AND METHODS FOR TREATMENT OF NEUROLOGICAL DISORDERS” (Dana-Farber Cancer Institute, Inc., priority 2022, published 2025).
“Also recorded” adds a separate entry of the source.

Legend:
Type in all cases: cell-based, mouse
CD11c^+αVβ3^+ microglia = assay: Ki-67 and TNF-α expression in microglia of 9-mo old WT mice incubated with rmOPN or αVβ3 inhibitor (flow cytometry); conditions: 9-mo old WT mice microglia, 24 h with or without 12.5 μg/ml rmOPN or 10 μM cilengitide
Method: (A) Microglia isolated from P5 and 9-mo old WT, OPN-KO and OPN-i-KI mice were incubated×1 h with […] pHrodo Green-labeled synaptosomes per 1×10^5 cells followed by flow cytometry analysis of CD11c^+ microglial engulfment of synaptosomes. CD11c^+ microglia from P5, but not 9-mo old WT mice, were highly phagocytic for engulfing synaptosomes in vitro. […] (C) CD11c^+ microglia expressed high levels of proliferation marker Ki-67 early in development (P5). OPN-s, but not OPN-i deficiency decreased Ki-67 expression in CD11c^+ microglia (n=3). *p<0.05 by one-way ANOVA with Bonferroni's multiple comparisons test. […] (E) Microglia isolated from 9-mo old WT mice were incubated×24 h with or without 12.5 μg/ml recombinant mouse OPN (rmOPN) or 10 μM αVβ3 inhibitor (cilengitide) followed by flow cytometry analysis of proliferation marker Ki-67. […] (G) Microglia isolated from 9-mo old WT mice were incubated×24 h with or without 12.5 μg/ml recombinant mouse OPN (rmOPN) or 10 μM αVβ3 inhibitor (cilengitide) followed by flow cytometry analysis of TNF-α expression. […] Data are shown as mean±s.e.m.
Microglial staining for flow cytometry analysis. Microglia were stained with Ghost dye Violet 510 (1:1000, Tonbo Biosciences) to exclude dead cells followed by Fc receptor blocking using CD16/CD32 antibody (1:100, BD Biosciences) to avoid non-specific staining. Appropriate microglial surface markers were used for staining, including anti-CD11b (1:100 Biolegend), anti-CD45 (1:100 Biolegend), anti-CD11c (1:50 Biolegend), anti-CD36 (1:100, Biolegend), anti-CD209a (1:100, Biolegend), anti-αV integrin (1:50, Biolegend), anti-β3 integrin (1:50, Biolegend), anti-CD86 (1:100, Biolegend), and anti-MHC II (1:100, Biolegend), followed by fixation and permeabilization for subsequent intracellular staining with anti-OPN (1:10, R&D Systems), anti-TNF-α (1:50, Biolegend) and intranuclear staining with anti-Ki-67 (1:100, Biolegend).

[1] = system: CD11c^+ microglia of 9-mo old OPN-KO.5XFAD mice; assay: In vitro microglia assay: impact of OPN-αVβ3 interaction on CD11c^+ microglial TNF-α production; conditions: 9-mo old OPN-KO.5XFAD microglia, Cilengitide 10 μM 1 h pre-incubation, then rmOPN 12.5 pg/ml, 24 h
Method: (a) Representative flow cytometry plots and quantification of TREM2 mean fluorescence intensity (MFI) in CD11c^+ OPN^+ and CD11c^+ OPN^− microglial subsets of 9-mo old 5XFAD mice. […] Statistical analysis was performed by two-tailed Student's t test. (b) Representative flow cytometry plots of TNF-α and TREM2 expression in CD11c^− OPN^− microglial subset of 9-mo old 5XFAD mice. CD11c^− OPN^− microglia expressed low level of TNF-α and negligible level of TREM2. The plots were representative results from 3 independent experiments. (c) Microglial expression of canonical OPN receptors in 5XFAD mice at different stages of disease. […] The histogram of CD44 and the contour plot of αVβ3 and αVβ5 were the representative results from 3 independent experiments. (d) The impact of OPN-αVβ3 interaction on CD11c^+ microglial production of TNF-α. […] (e) Representative flow cytometry plots and quantification of TREM2 MFI in CD11c^+ microglia of 9-mo old 5XFAD and OPN-KO.5XFAD mice (n=3). […] Two-tailed Student's t test was performed for statistical analysis.
To test the impact of OPN-αVβ3 interaction on CD11c^+ microglial pro-inflammatory response, microglia were enriched by anti-CD11b microbeads (purity >95%, Miltenyi) from 9-mo old OPN-KO.5XFAD mice and were seeded into 12-well plates at 3×10^5 cells/well in conventional microglia culture medium (DMEM-F12 with 10% fetal bovine serum+1% penicillin/streptomycin+10 ng/ml recombinant mouse M-CSF). Microglia were pre-incubated with a selective αVβ3 inhibitor, Cilengitide (10 μM) for 1 h followed by the addition of 12.5 pg/ml recombinant mouse OPN (rmOPN) and cultured for 24 h before analysis of CD11c^+ microglial expression of TNF-α by flow cytometry.

Caspase-1 = assay: Microglial inflammasome activation: intracellular Caspase-1 activity (bioluminescent Caspase-Glo 1 assay); conditions: LPS 100 ng/ml 3 h + Aβ1-42 fibrils 10 μM overnight; microglia from 9-mo 5XFAD and OPN-KO.5XFAD mice; rmOPN 12.5 pg/ml, Cilengitide 10 μM
Method: (§1) Intracellular Caspase-1 activity was measured by bioluminescent assay of microglia from 9-month-old 5XFAD mice. Detection of the specificity of Caspase-1 activity was confirmed by a selective Caspase-1 inhibitor (Ac-YVAD-CHO (SEQ ID NO: 13), 1 μM). Bar plots are representative results from three independent experiments. […] Activation of Caspase-1 and IL1β by provision of rmOPN was blocked following provision of αVβ3 inhibitor to microglia from 9-mo old 5XFAD and OPN-KO.5XFAD mice (n=3). ****p<0.0001, ***p<0.001, **p<0.01, *p<0.05, ns: not significant by one-way ANOVA with Bonferroni's multiple comparisons test. U.D. undetectable.
(§2) In these studies, microglia isolated from 9-mo old 5XFAD and OPN-KO.5XFAD mice were seeded into 96-well plates at 6×10^4 cells/well in conventional microglia culture medium (DMEM-F12 with 10% fetal bovine serum+1% penicillin/streptomycin+10 ng/ml recombinant mouse M-CSF). […] Microglial intracellular Caspase-1 activity was analyzed by the bioluminescent Caspase-Glo® 1 Inflammasome Assay Kit (Promega) per the manufacturer's instruction. […] Culture medium was collected for quantitative determination of microglial […] DuoSet ELISA kit (R&D Systems) according to the manufacturer's instructions.

IL-1β = assay: Microglial inflammasome activation: IL-1β production (ELISA of culture medium); conditions: LPS 100 ng/ml 3 h + Aβ1-42 fibrils 10 μM overnight; microglia from 9-mo 5XFAD and OPN-KO.5XFAD mice; rmOPN 12.5 pg/ml, Cilengitide 10 μM
Method: as §1, §2

Compound: CC(C)[C@H]1C(=O)N[C@@H](CCCN=C(N)N)C(=O)NCC(=O)N[C@@H](CC(=O)O)C(=O)N[C@H](Cc2ccccc2)C(=O)N1C [Cilengitide]
- Ki-67 expression in CD11c^+αVβ3^+ microglia (CD11c^+αVβ3^+ microglia): markedly reduced; also recorded: fully abrogated
- TNF-α expression in CD11c^+αVβ3^+ microglia (CD11c^+αVβ3^+ microglia): fully abolished
- TNF-α production by CD11c^+ microglia [1]: abolished
- TNF-α production by CD11c^+ microglia ([1]; listed as αVβ3 inhibitor): fully abrogated
- microglial intracellular Caspase-1 activity (Caspase-1): blocked
- microglial IL-1β production (IL-1β): blocked

Compound: rmOPN: recombinant mouse OPN (osteopontin)
- Ki-67 expression in CD11c^+αVβ3^+ microglia (CD11c^+αVβ3^+ microglia): enhanced Ki-67 expression
- TNF-α expression in CD11c^+αVβ3^+ microglia (CD11c^+αVβ3^+ microglia): Upregulation of TNF-α expression
- TNF-α production by CD11c^+ microglia [1]: induced TNF-α expression; also recorded: Upregulated TNF-α production
- microglial intracellular Caspase-1 activity (Caspase-1): substantially increased; also recorded: Activation
- microglial IL-1β production (IL-1β): substantially increased; also recorded: Activation
